These compounds were tested on PAF-induced aggregation of human thrombocytes (assay: Inhibition of PAF-induced blood platelet aggregation in vitro). Details: thrombocyte-rich plasma, aggregation induced with PAF 5×10^-8 M, concentration giving a 50% inhibition of aggregation, read-out: PAF-Antag. IC50.
Type: cell-based
Procedure: 1. Inhibition of blood platelet aggregation in vitro
The PAF-induced aggregation of human thrombocytes in vitro is used to determine PAF-antagonistic activity. To obtain thrombocyte-rich plasma (TRP) blood is taken from an uncongested vein using a plastic syringe containing 3.8% sodium citrate solution. The ratio of sodium citrate solution to blood is 1:9. After careful mixing the citrate blood is centrifuged for 20 minutes at 150 g (1200 rpm). The thrombocyte aggregation is measured using the method devised by Born and Cross (G. V. R. Born and M. J. Cross, J. Physiol. 168, 178 (1963)), by adding an aggregation initiator (PAF) to the TRP with constant stirring.
The test substance is added 2 to 3 minutes before aggregation is initiated in a volume of 10 μl. Either distilled water, ethanol and/or dimethylsulphoxide (each in suitable concentrations) can be used as solvent.
Control mixtures contain corresponding volumes of these solvents. After the initial absorption has been recorded (2 to 3 minutes) aggregation is induced with PAF (5×10^-8 M).
The maximum of the first aggregation wave is used to assess the effects of the substance. The PAF-induced maximum absorption rate (=maximum aggregation×100%) is tested at the same time in a parallel mixture (=control mixture in one of the channels of the two-channel aggregometer) as each test mixture (second channel) and is used as a 100% value.
The aggregation value attained under the effect of the test substance is given as a percentage of the control value, i.e. less than 100% in the case of an inhibition of aggregation and over 100% in the case of an increase.
Each test substance is investigated at concentrations of from 10^-3 to 10^-8 M with a random sampling of n=4 with regard to an inhibitory effect on the PAF-induced thrombocyte aggregation. Then a concentration-activity curve is drawn up using 3 concentrations and the IC50 is determined (concentration giving a 50% inhibition of aggregation).
`CN1C(=O)CN=C(c2ccccc2)c2cc(Cl)ccc21` [compound 1] was tested, and the IC50 was 250 µM. `O=C1CN=C(c2ccccc2)c2cc([N+](=O)[O-])ccc2N1` [compound 2] showed an IC50 of 220 µM. `O=C1CN=C(c2ccccc2Cl)c2cc([N+](=O)[O-])ccc2N1` [compound 3] gave an IC50 of 80 µM. `CN1C(=O)CN=C(c2ccccc2F)c2cc([N+](=O)[O-])ccc21` [compound 4] gave an IC50 of 46 µM. `CCN(CC)CCN1C(=O)CN=C(c2ccccc2F)c2cc(Cl)ccc21` [compound 5] was tested, and the IC50 was 80 µM. With `CN1C(=O)CN=C(c2ccccc2)c2cc([N+](=O)[O-])cnc21` [compound 7] the IC50 was 380 µM. Work on `O=C1CN=C(c2ccccc2)c2cc([N+](=O)[O-])cnc2N1` [compound 8] yielded an IC50 of 250 µM. With `O=C1CN=C(c2ccccc2Cl)c2ccsc2N1` [compound 9] the IC50 was 760 µM. In the case of `CCc1cc2c(s1)NC(=O)CN=C2c1ccccc1Cl` [compound 10], the IC50 is reported as 325 µM. In the case of `CN1C(=O)CN=C(c2ccccc2Cl)c2cc(Br)sc21` [compound 11], the IC50 is reported as 170 µM. `Cc1csc2c1C(c1ccccc1)=NCC(=O)N2` [compound 12] showed an IC50 of 280 µM. In the case of `CN1C(=O)CN=C(c2ccccc2Cl)c2cc([N+](=O)[O-])sc21` [compound 13], the IC50 is reported as 200 µM. For `O=C1CN=C(c2ccccc2Cl)c2c(sc3c2CCCS3)N1` [compound 14], the IC50 was 234 µM. Compound `CCn1nc(C)c2c1NC(=O)CN=C2c1ccccc1Cl` [compound 15] has an IC50 of 870 µM. With `O=C1CN=C(c2ccccc2Cl)c2sccc2N1` [compound 16] the IC50 was 500 µM. For `N#CCCn1nnc2c1NC(=O)CN=C2c1ccccc1Cl` [compound 17], the IC50 was 1000 µM. In the case of `CN1CCN=C(c2ccccc2)c2c(Cl)nsc21` [compound 18], the IC50 is reported as 110 µM. `S=C1CN=C(c2ccccc2)c2cc(Cl)ccc2N1` [compound 19] showed an IC50 of 620 µM. Compound `CCn1nc(C)c2c1C(c1ccccc1)=NCC(=S)N2` [compound 20] has an IC50 of 250 µM. `CN1CCN=C(c2ccccc2Cl)c2cc(Cl)ccc21` [compound 21] gave an IC50 of 360 µM. `Cc1ccc2c(c1)C(c1ccccc1Cl)=NCC(=O)N2` [compound 22] showed an IC50 of 580 µM. Compound `CCC1N=C(c2ccccc2Cl)c2ccsc2NC1=O` (centres unmarked) [compound 23] has an IC50 of 810 µM. `CCC1N=C(c2ccccc2Cl)c2cc(Br)sc2NC1=O` (centres unmarked) [compound 24] gave an IC50 of 530 µM. `COc1ccc2c(c1)C(c1ccccc1Cl)=NCC(=O)N2` [compound 25] showed an IC50 greater than 100 µM. `O=C1CN=C(c2ccccc2Cl)c2c(sc3c2CCOC3)N1` [compound 26] was tested, and the IC50 was 79 µM. With `COc1cccc2c1NC(=O)CN=C2c1ccccc1Cl` [compound 27] the IC50 was 356 µM. Compound `O=C1CN=C(c2ccccc2Cl)c2cc(Cl)ccc2N1` [compound 28] has an IC50 greater than 100 µM. Compound `COC(=O)c1ccc2c(c1)C(c1ccccc1Cl)=NCC(=O)N2` [compound 29] has an IC50 of 120 µM. In the case of `Cc1nc2c(n1C)C(c1ccccc1)=NCC(=O)N2` [compound 30], the IC50 is reported as greater than 50 µM.

Source: US4623646A, “PAF-antagonistic diazepines, methods of use” (Boehringer Ingelheim KG, priority 1984, dated 1986)
